Results on four compounds are retold here after patent US10570184B2, “GLP-1/glucagon receptor co-agonists for medical use” (Novo Nordisk A/S, priority 2014, dated 2020).

Starred links: 1 amine or outer side, 2 acyl side, 3 side chain; linkers in the order of their positions; H or OH if unused. Non-standard residues stand in square brackets, D forms with d. Residues, ends and D or L forms follow the SMILES beside them. Groups on a side chain read outwards from the residue. *: point of attachment. C18 diacid = O=C(O)CCCCCCCCCCCCCCCCC(=O)*; γGlu = O=C(O)[C@H](CCC(=O)[*:2])N[*:1]; Ac4c = NC1(C(=O)O)CCC1; AEEA = NCCOCCOCC(=O)O; Aib = CC(C)(N)C(=O)O

Test [1] concerns the target T1, human GLP-1 receptor (Homo sapiens, UniProt P43220).
T1 construct: expressed in transfected cells; host or cells: membranes of BHK cells (parent BHKTS13), clone FCW467-12A
Description: Assay (II)(a) GLP-1 receptor binding, 125I-GLP-1 displacement SPA on BHK membranes. The conditions noted are these: without presence of serum albumin; read-out: GLP-1R IC50 (nM) [Assay (II)(a)]. The method, boiled down:
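Membranes from BHK cells (clone FCW467-12A) stably expressing human GLP-1R were incubated with serially diluted compounds (8×10EE-13 to 8×10EE-7 M before addition) and [125I]-GLP-1-(7-36)NH2 with WGA SPA beads, 2 h at 30° C, pH 7.4. IC50 taken from displacement by non-linear regression. Run at ≤0.001% or 2.0% final serum albumin.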

The target in test [2] is T1, human GLP-1 receptor. In words: Assay (I)(a) GLP-1 receptor activation, CRE luciferase reporter gene assay in BHK cells. It counts as cell-based. The conditions noted are these: without presence of serum albumin; read-out: GLP-1R EC50 (pM) [Assay (I)(a)]. On the procedure: The purpose of this example was to test the activity or potency, of the glucagon derivatives of the invention, in vitro. The in vitro potency is the measure of human GLP-1 receptor (GLP-1R) or glucagon receptor (glucagonR) activation, respectively, in a whole cell assay. In vitro potency was determined by measuring the response of human GLP-1 or glucagon receptor, respectively, in a reporter gene assay. The assay was performed in a stably transfected BHK cell line that expresses either the human GLP-1 receptor or the human glucagon receptor and contains the DNA for the cAMP response element (CRE) coupled to a promoter and the gene for firefly luciferase (CRE luciferase). […] When assay incubation was completed, the luciferase substrate (luciferin) was added and the enzyme converted luciferin to oxyluciferin and produces bioluminescence. The luminescence was measured as the readout for the assay. The cells used in this assay (clone FCW467-12A/KZ10-1) were BHK cells with BHKTS13 as a parent cell line. The cells were derived from a clone (FCW467-12A) that expresses the human GLP-1 receptor and were established by further transfection with CRE luciferase to obtain the current clone. The cells were cultured at 5% CO2 in DMEM medium with 10% FBS, 1×GlutaMAX, 1 mg/ml G418, 240 nM MTX (methotrexate) and 1% pen/strep (penicillin/streptomycin). They were aliquoted and stored in liquid nitrogen. Before each assay, an aliquot was taken up and washed three times in PBS before being suspended at the desired concentration in assay medium. For 96-well plates the suspension was made to give a final concentration of 5×10EE3 cells/well. The following chemicals were used in the assay: Pluronic F-68 (10%) (Gibco 2404), ovalbumin (Sigma A5503), DMEM w/o phenol red (Gibco 11880-028), 1 M Hepes (Gibco 15630), Glutamax 100× (Gibco 35050) and steadylite plus (PerkinElmer 6016757). Assay Medium consisted of DMEM w/o phenol red, 10 mM Hepes, 1× GlutaMAX, 2% Ovalbumin and 0.2% Pluronic F-68. Cell stocks were thawed in a 37° C. water bath. Cells were washed three times in PBS. The cells were counted and adjusted to 5×10EE3 cells/50 μl (1×10EE5 cells/ml) in Assay Medium. A 50 μl aliquot of cells was transferred to each well in the assay plate. Stocks of the test compounds and reference compounds were diluted to a concentration of […] in Assay Medium. Compounds were diluted 10-fold to give the following concentrations: 2×10EE-6 M, 2×10EE-7 M, 2×10EE-8 M; 2×10EE-9 M, 2×10EE-10 M, 2×10EE-11 M, 2×10EE-12 M and 2×10EE-13 M. For each compound a blank assay medium control was also included. A 50 μl aliquot of compound or blank was transferred from the dilution plate to the assay plate. Compounds were tested at the following final concentrations: 1×10EE-6 M, 1×10EE-7 M, 1×10EE-8 M; 1×10EE-9 M, 1×10EE-10 M, 1×10EE-11 M and 1×10EE-12 M and 1×10EE-13 M. The assay plate was incubated for 3 h in a 5% CO2 incubator at 37° C. The assay plate was removed from the incubator and allowed to stand at room temperature for 15 min. A 100 μl aliquot of steadylite plus reagent was added to each well of the assay plate (reagent is light sensitive). Each assay plate was covered with aluminum foil to protect it from light and shaken for 30 min at room temperature. Each assay plate was read in a Perkin Elmer TopCount NXT instrument. The data from the TopCount instrument was transferred to GraphPad Prism software. The software performed a non-linear regression (log(agonist) vs response-Variable slope (four parameter)). EC50 values were calculated by the software and reported in pM.
Background: Reporter assays use an easily measured gene product as a stand-in for the process of interest.

T1 sequence (P43220 24-463): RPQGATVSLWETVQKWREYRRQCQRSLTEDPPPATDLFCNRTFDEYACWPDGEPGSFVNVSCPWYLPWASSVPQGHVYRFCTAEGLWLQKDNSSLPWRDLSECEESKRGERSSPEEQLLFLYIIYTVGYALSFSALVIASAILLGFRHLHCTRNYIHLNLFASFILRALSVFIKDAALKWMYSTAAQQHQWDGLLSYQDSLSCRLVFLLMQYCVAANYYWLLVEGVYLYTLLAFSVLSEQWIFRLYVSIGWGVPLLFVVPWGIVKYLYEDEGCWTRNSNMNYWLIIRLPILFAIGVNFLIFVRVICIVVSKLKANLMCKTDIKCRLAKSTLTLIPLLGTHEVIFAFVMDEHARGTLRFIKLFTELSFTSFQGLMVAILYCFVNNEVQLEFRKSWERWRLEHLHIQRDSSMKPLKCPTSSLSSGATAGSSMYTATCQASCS

One may read the IC50 as the concentration that gives 50% inhibition. By EC50 is commonly meant the concentration that produces a half-maximal response. Take `CC[C@H](C)[C@H](NC(=O)[C@H](CC(C)C)NC(=O)[C@H](Cc1c[nH]c2ccccc12)NC(=O)[C@H](CCC(N)=O)NC(=O)[C@@H](NC(=O)[C@H](Cc1ccccc1)NC(=O)[C@H](CCC(=O)O)NC(=O)[C@H](CCCNC(=N)N)NC(=O)[C@H](C)NC(=O)[C@H](CCCNC(=N)N)NC(=O)[C@H](CCCNC(=N)N)NC(=O)[C@H](C)NC(=O)[C@H](CC(=O)O)NC(=O)[C@H](CC(C)C)NC(=O)[C@H](Cc1ccc(O)cc1)NC(=O)[C@H](CCCCN)NC(=O)[C@H](CO)NC(=O)[C@H](CC(C)C)NC(=O)[C@H](CC(=O)O)NC(=O)[C@H](CO)NC(=O)[C@@H](NC(=O)[C@H](Cc1ccccc1)NC(=O)[C@@H](NC(=O)CNC(=O)[C@H](CCC(N)=O)NC(=O)C(C)(C)NC(=O)[C@@H](N)Cc1c[nH]cn1)[C@@H](C)O)[C@@H](C)O)C(C)C)C(=O)N[C@@H](CCCCNC(=O)COCCOCCNC(=O)COCCOCCNC(=O)CC[C@H](NC(=O)CC[C@H](NC(=O)CC[C@H](NC(=O)CCCCCCCCCCCCCCCCC(=O)O)C(=O)O)C(=O)O)C(=O)O)C(=O)N[C@H](C(N)=O)[C@@H](C)O` [Chem. 6, N^ε28-[2-[2-[2-[[2-[2-[2-[[(4S)-4-carboxy-4-[[(4S)-4-carboxy-4-[[(4S)-4-carboxy-4-(17-carboxyheptadecanoylamino)butanoyl]amino]butanoyl]amino]butanoyl]amino]ethoxy]ethoxy]acetyl]amino]ethoxy]ethoxy]acetyl]-[Aib2,Leu10,Ala16,Arg20,Glu21,Ile27,Lys28]-Glucagon amide] (H-H[Aib]QGTFTSDLSKYLDARRAREFVQWLIK([AEEA-AEEA-γGlu-γGlu-γGlu-C18 diacid])T-NH2; N-terminus assumed): at human GLP-1 receptor [1], the IC50 amounted to 0.1 nM. Further, at human GLP-1 receptor [2], the EC50 came out at 5 pM.
For `CC[C@H](C)[C@H](NC(=O)[C@H](CC(C)C)NC(=O)[C@H](Cc1c[nH]c2ccccc12)NC(=O)[C@H](CCC(N)=O)NC(=O)[C@@H](NC(=O)[C@H](Cc1ccccc1)NC(=O)[C@H](CC(=O)O)NC(=O)[C@H](CCC(N)=O)NC(=O)[C@H](C)NC(=O)[C@H](CCCNC(=N)N)NC(=O)[C@H](CCCNC(=N)N)NC(=O)[C@H](CO)NC(=O)[C@H](CCC(=O)O)NC(=O)[C@H](CC(C)C)NC(=O)[C@H](Cc1ccc(O)cc1)NC(=O)[C@H](CCCCN)NC(=O)[C@H](CO)NC(=O)[C@H](CC(C)C)NC(=O)[C@H](CC(=O)O)NC(=O)[C@H](CO)NC(=O)[C@@H](NC(=O)[C@H](Cc1ccccc1)NC(=O)[C@@H](NC(=O)CNC(=O)[C@H](CCC(N)=O)NC(=O)C(C)(C)NC(=O)[C@@H](N)Cc1c[nH]cn1)[C@@H](C)O)[C@@H](C)O)C(C)C)C(=O)N[C@@H](CCCCNC(=O)COCCOCCNC(=O)COCCOCCNC(=O)CC[C@H](NC(=O)CC[C@H](NC(=O)CC[C@H](NC(=O)CCCCCCCCCCCCCCCCC(=O)O)C(=O)O)C(=O)O)C(=O)O)C(=O)N[C@H](C(N)=O)[C@@H](C)O` [Chem. 8, N^ε28-[2-[2-[2-[[2-[2-[2-[[(4S)-4-carboxy-4-[[(4S)-4-carboxy-4-[[(4S)-4-carboxy-4-(17-carboxyheptadecanoylamino)butanoyl]amino]butanoyl]amino]butanoyl]amino]ethoxy]ethoxy]acetyl]amino]ethoxy]ethoxy]acetyl]-[Aib2,Leu10,Glu15,Ile27,Lys28]-Glucagon amide] (H-H[Aib]QGTFTSDLSKYLESRRAQDFVQWLIK([AEEA-AEEA-γGlu-γGlu-γGlu-C18 diacid])T-NH2; N-terminus assumed) the same measures were 0.1 nM and 7 pM.
For `CC[C@H](C)[C@H](NC(=O)[C@H](CC(C)C)NC(=O)[C@H](Cc1c[nH]c2ccccc12)NC(=O)[C@H](CCC(N)=O)NC(=O)[C@@H](NC(=O)[C@H](Cc1ccccc1)NC(=O)[C@H](CC(=O)O)NC(=O)[C@H](CCC(N)=O)NC(=O)[C@H](C)NC(=O)[C@H](CCCNC(=N)N)NC(=O)[C@H](CCCNC(=N)N)NC(=O)[C@H](CO)NC(=O)[C@H](CCC(=O)O)NC(=O)[C@H](CC(C)C)NC(=O)[C@H](Cc1ccc(O)cc1)NC(=O)[C@H](CCCCN)NC(=O)[C@H](CO)NC(=O)[C@@H](NC(=O)[C@H](CC(=O)O)NC(=O)[C@H](CO)NC(=O)[C@@H](NC(=O)[C@H](Cc1ccccc1)NC(=O)[C@@H](NC(=O)CNC(=O)[C@H](CCC(N)=O)NC(=O)C(C)(C)NC(=O)[C@@H](N)Cc1c[nH]cn1)[C@@H](C)O)[C@@H](C)O)C(C)C)C(C)C)C(=O)N[C@@H](CCCCNC(=O)COCCOCCNC(=O)COCCOCCNC(=O)CC[C@H](NC(=O)CC[C@H](NC(=O)CC[C@H](NC(=O)CCCCCCCCCCCCCCCCC(=O)O)C(=O)O)C(=O)O)C(=O)O)C(=O)N[C@H](C(N)=O)[C@@H](C)O` [Chem. 10, N^ε28-[2-[2-[2-[[2-[2-[2-[[(4S)-4-carboxy-4-[[(4S)-4-carboxy-4-[[(4S)-4-carboxy-4-(17-carboxyheptadecanoylamino)butanoyl]amino]butanoyl]amino]butanoyl]amino]ethoxy]ethoxy]acetyl]amino]ethoxy]ethoxy]acetyl]-[Aib2,Val10,Glu15,Ile27,Lys28]-Glucagon amide] (H-H[Aib]QGTFTSDVSKYLESRRAQDFVQWLIK([AEEA-AEEA-γGlu-γGlu-γGlu-C18 diacid])T-NH2) the same measures were 0.1 nM and 3 pM.
Taken in the same sequence, the figures for `CC[C@H](C)[C@H](NC(=O)[C@H](CC(C)C)NC(=O)[C@H](Cc1c[nH]c2ccccc12)NC(=O)[C@H](CCC(N)=O)NC(=O)[C@@H](NC(=O)[C@H](Cc1ccccc1)NC(=O)[C@H](CCC(=O)O)NC(=O)[C@H](CCCNC(=N)N)NC(=O)[C@H](C)NC(=O)[C@H](CCCNC(=N)N)NC(=O)[C@H](CCCNC(=N)N)NC(=O)[C@H](CO)NC(=O)[C@H](CCC(=O)O)NC(=O)[C@H](CC(C)C)NC(=O)[C@H](Cc1ccc(O)cc1)NC(=O)[C@H](CCCCN)NC(=O)[C@H](CO)NC(=O)[C@H](CC(C)C)NC(=O)[C@H](CC(=O)O)NC(=O)[C@H](CO)NC(=O)[C@@H](NC(=O)[C@H](Cc1ccccc1)NC(=O)[C@@H](NC(=O)CNC(=O)[C@H](CCC(N)=O)NC(=O)C1(NC(=O)[C@@H](N)Cc2c[nH]cn2)CCC1)[C@@H](C)O)[C@@H](C)O)C(C)C)C(=O)N[C@@H](CCCCNC(=O)CC[C@H](NC(=O)CC[C@H](NC(=O)COCCOCCNC(=O)COCCOCCNC(=O)CC[C@H](NC(=O)CC[C@H](NC(=O)CCCCCCCCCCCCCCCCC(=O)O)C(=O)O)C(=O)O)C(=O)O)C(=O)O)C(=O)N[C@H](C(N)=O)[C@@H](C)O` [Chem. 13, N^ε28-[(4S)-4-carboxy-4-[[(4S)-4-carboxy-4-[[2-[2 [2-[[2-[2-[2-[[(4S)-4-carboxy-4-[[(4S)-4-carboxy-4-(17-carboxyheptadecanoylamino)butanoyl]amino]butanoyl]amino]ethoxy]ethoxy]acetyl]amino]ethoxy]ethoxy]acetyl]amino]butanoyl]amino]butanoyl]-[Acb2,Leu10,Glu15,Arg20,Glu21,Ile27,Lys28]-Glucagon amide] (H-H[Ac4c]QGTFTSDLSKYLESRRAREFVQWLIK([γGlu-γGlu-AEEA-AEEA-γGlu-γGlu-C18 diacid])T-NH2) were 0.1 nM and 4 pM.
